The CheMixHub drug solubility set

Experiment: xn = mol fraction of the nth substance listed, in the solute-free solvent

CCCCCOC(=O)Nc1nc(=O)n(C2OC(C)C(O)C2O)cc1F (centres undefined) + CCOC(C)=O + CCCCCC
solubility (g/100 g solution)
Conditions | 278.15 K | 283.15 K | 288.15 K | 293.15 K | 298.15 K | 303.15 K | 308.15 K | 313.15 K | 318.15 K | 323.15 K
x2 = 0.09988 | 0.0133 | 0.0183 | 0.0254 | 0.0345 | 0.0462 | 0.0616 | 0.0815 | 0.107 | 0.139 | 0.18
x2 = 0.2008 | 0.0154 | 0.0212 | 0.0286 | 0.0382 | 0.0506 | 0.0664 | 0.0863 | 0.111 | 0.143 | 0.181
x2 = 0.3 | 0.0501 | 0.0621 | 0.0766 | 0.0936 | 0.113 | 0.137 | 0.165 | 0.197 | 0.233 | 0.276
x2 = 0.4 | 0.113 | 0.134 | 0.159 | 0.219 | 0.187 | 0.255 | 0.296 | 0.341 | 0.392 | 0.448
x2 = 0.5003 | 0.141 | 0.171 | 0.207 | 0.248 | 0.296 | 0.351 | 0.413 | 0.484 | 0.565 | 0.655
x2 = 0.6 | 0.309 | 0.384 | 0.474 | 0.581 | 0.706 | 0.853 | 1.02 | 1.22 | 1.45 | 1.71
x2 = 0.6998 | 0.423 | 0.535 | 0.67 | 0.833 | 1.03 | 1.26 | 1.53 | 1.85 | 2.22 | 2.65
x2 = 0.7998 | 0.53 | 0.694 | 0.902 | 1.16 | 1.48 | 1.87 | 2.34 | 2.91 | 3.58 | 4.39
x2 = 0.8999 | 0.819 | 1.09 | 1.43 | 1.85 | 2.38 | 3.04 | 3.84 | 4.8 | 5.96 | 7.33

CCCCCOC(=O)Nc1nc(=O)n(C2OC(C)C(O)C2O)cc1F (centres undefined) + CCOC(C)=O + CCCCCCC
solubility (g/100 g solution)
Conditions | 278.15 K | 283.15 K | 288.15 K | 293.15 K | 298.15 K | 303.15 K | 308.15 K | 313.15 K | 318.15 K | 323.15 K
x2 = 0.3 | 0.0197 | 0.0268 | 0.0361 | 0.0476 | 0.0629 | 0.0818 | 0.106 | 0.136 | 0.174 | 0.22
x2 = 0.4 | 0.0475 | 0.0561 | 0.0765 | 0.0904 | 0.106 | 0.132 | 0.154 | 0.184 | 0.216 | 0.267
x2 = 0.5 | 0.0862 | 0.111 | 0.141 | 0.179 | 0.221 | 0.274 | 0.337 | 0.411 | 0.502 | 0.604
x2 = 0.5998 | 0.131 | 0.166 | 0.212 | 0.286 | 0.332 | 0.407 | 0.518 | 0.643 | 0.749 | 0.931
x2 = 0.7 | 0.266 | 0.34 | 0.455 | 0.554 | 0.682 | 0.849 | 1.07 | 1.31 | 1.63 | 1.98
x2 = 0.8 | 0.485 | 0.609 | 0.801 | 0.99 | 1.27 | 1.6 | 2.05 | 2.49 | 3.12 | 3.74
x2 = 0.9001 | 0.622 | 0.794 | 1.08 | 1.44 | 1.81 | 2.46 | 3.02 | 4.02 | 4.87 | 6.07

Cl.N=C(N)N + CN1CCCC1=O + CCCO
solubility (g/100 g solution)
Conditions | 278.15 K | 283.15 K | 288.15 K | 293.15 K | 298.15 K | 303.15 K | 308.15 K | 313.15 K | 318.15 K | 323.15 K
x2 = 0.06317 | 8.4 | 9.4 | 10.7 | 11.5 | 12.7 | 13.3 | 15.1 | 16.1 | 17.7 | 18.6
x2 = 0.2064 | 15.9 | 17 | 17.8 | 19.2 | 20.1 | 21.4 | 22.1 | 23.2 | 24.7 | 25.3
x2 = 0.3774 | 28.5 | 29.2 | 30.4 | 31 | 32.1 | 32.6 | 33.7 | 34.4 | 35.4 | 35.9
x2 = 0.5858 | 37.2 | 37.8 | 39.1 | 40.2 | 41.4 | 42.1 | 43.4 | 44.3 | 46 | 47.3
x2 = 0.845 | 41.9 | 43.3 | 44.2 | 45.5 | 46.7 | 47.9 | 49.3 | 50.4 | 52.6 | 53.1

CN1CCN(C2=Nc3cc(Cl)ccc3Nc3ccccc32)CC1 + CN1CCCC1=O + O
solubility (g/100 g solution)
Conditions | x2 = 0.0198 | x2 = 0.04347 | x2 = 0.07228 | x2 = 0.1081 | x2 = 0.1538 | x2 = 0.2143 | x2 = 0.2979 | x2 = 0.421 | x2 = 0.6207
278.15 K | 0.00909 | 0.045 | 0.169 | 0.497 | 1.2 | 2.31 | 3.88 | 5.87 | 7.69
283.15 K | 0.0126 | 0.0614 | 0.224 | 0.65 | 1.5 | 2.92 | 4.64 | 6.96 | 9.05
288.15 K | 0.0173 | 0.0846 | 0.297 | 0.832 | 1.86 | 3.58 | 5.6 | 8.28 | 10.5
293.15 K | 0.0228 | 0.113 | 0.388 | 1.02 | 2.32 | 4.34 | 6.81 | 9.65 | 12
298.15 K | 0.0318 | 0.148 | 0.501 | 1.3 | 2.84 | 5.22 | 7.94 | 11.2 | 13.9
303.15 K | 0.0423 | 0.192 | 0.629 | 1.6 | 3.48 | 6.19 | 9.35 | 12.8 | 15.9
308.15 K | 0.0547 | 0.257 | 0.793 | 2.01 | 4.21 | 7.31 | 10.9 | 14.7 | 18
313.15 K | 0.071 | 0.329 | 1.02 | 2.46 | 5.04 | 8.54 | 12.7 | 16.8 | 20.2
318.15 K | 0.0919 | 0.419 | 1.25 | 2.99 | 5.94 | 9.98 | 14.5 | 19 | 22.5
323.15 K | 0.12 | 0.537 | 1.56 | 3.57 | 6.98 | 11.6 | 16.5 | 21.4 | 25.1
328.15 K | 0.155 | 0.673 | 1.89 | 4.3 | 8.24 | 13.4 | 18.7 | 24 | 28
